Literature values as cited in patent publication US10251814B2, “Cefuroxime safety delivery system” (CIS PHARMA AG, priority 2011, dated 2019).
Like-named read-outs stand apart in the source and are kept apart here.

How the values were obtained:
[1] = test system: endophthalmitis; conditions: 16,603 patients; cefuroxime 1 mg in 0.1 ml normal saline intracameral at end of surgery; levofloxacin drops prior and subsequent to surgery
[2] = in 48 hours, at room temperature
[3] = test system: human corneal endothelial cells; conditions: 24-hour exposure
[4] = 1 mg in 0.1 ml of aqueous solution

Q: For CO/N=C(\C(=O)N[C@@H]1C(=O)N2C(C(=O)O)=C(COC(N)=O)CS[C@H]12)c1ccco1 [cefuroxime], which “reduction of the risk for endophthalmitis” value [1] is on record?
A: The value was “nearly five fold”.

Q: What about the “hydrolysis rate in aqueous solution” value [2] of the same molecule?
A: Its value is “about 10%”.

Q: And the mean intracameral concentration (after one hour, intracameral administration of 1 mg in 0.1 ml)?
A: Its mean intracameral concentration is 0.756 mg/mL.

Q: What about the mean intracameral concentration (shortly after intracameral administration of 1 mg in 0.1 ml) of the same molecule?
A: Its mean intracameral concentration is 2.742 mg/mL.

Q: What about the “concentration resulting in a significant reduction in cell viability” value [3] of the same molecule?
A: The value was “exceeding 2.75 mg/ml”.

Q: What about the “safety of intracameral administration” value [4] of the same molecule?
A: The value was “has been established”.
